ChEMBL document CHEMBL5149966, “Bisphosphonates, Old Friends of Bones and New Trends in Clinics” (J Med Chem, 2021)

Columns and labels:
Toxoplasma gondii = experiment: Antiparasitic activity against Toxoplasma gondii tachyzoites infected in human foreskin fibroblast incubated for 48 hrs followed by [5,6-3H]uracil addition and measured after 4 hrs by scintillation counter analysis; format: functional, organism-based; settings: type III
Plasmodium falciparum = experiment: Antiparasitic activity against Plasmodium falciparum 3D7 infected in human erythrocyte assessed as intraerythrocytic growth inhibition incubated for 24 hrs followed by [3H]hypoxanthine addition by microbeta scintillation counter analysis; format: functional, organism-based; settings: 3D7, Erythrocyte
Leishmania donovani = experiment: Antiparasitic activity against amastigote stage Leishmania donovani MHOM/ET/67/L82 infected in CD-1 mouse peritoneal macrophage assessed as reduction in parasite burden incubated for 5 days by Giemsa staining based microscopy; format: functional, organism-based; settings: MHOM/ET/67/L82, Peritoneal macrophage, 120 h
Entamoeba histolytica [1] = experiment: Antiparasitic activity against Entamoeba histolytica trophozoites infected in hamster liver to induce hepatic abscess assessed as reduction in liver abscess formation at 10 mg/kg, ip for 5 days; format: functional; parameters: scale not given: the % may be the effect or the level left; settings: time 5 day
[2] = test system: Trypanosoma brucei rhodesiense; experiment: Antiparasitic activity against Trypanosoma brucei rhodesiense STIB900 bloodstream trypomastigotes assessed as parasite growth inhibition incubated for 3 days by Alamar Blue fluorometric assay; format: functional, organism-based; settings: STIB900, 72 h
Entamoeba histolytica [3] = experiment: Antiparasitic activity against Entamoeba histolytica trophozoites assessed as parasite growth inhibition incubated for 90 hrs followed by [3H]hypoxanthine addition and measured after 6 hrs by scintillation counter analysis; format: functional, organism-based
[4] = biological target: T1, Ditrans,polycis-undecaprenyl-diphosphate synthase ((2E,6E)-farnesyl-diphosphate specific) (Escherichia coli (strain K12), UniProt P60472); experiment: Inhibition of Escherichia coli UPPS
T1 sequence (P60472 whole entry): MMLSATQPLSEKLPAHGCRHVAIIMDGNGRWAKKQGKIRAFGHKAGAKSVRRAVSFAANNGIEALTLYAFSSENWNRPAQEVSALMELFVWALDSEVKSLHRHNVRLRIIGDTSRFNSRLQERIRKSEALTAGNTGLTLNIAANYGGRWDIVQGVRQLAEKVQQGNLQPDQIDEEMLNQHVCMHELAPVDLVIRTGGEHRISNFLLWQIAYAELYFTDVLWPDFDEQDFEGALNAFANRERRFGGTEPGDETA

Plasmodium berghei = experiment: Antiparasitic activity against Plasmodium berghei ANKA infected in BALB/c mouse assessed as reduction in parasitemia at 25 mg/kg, ip for 4 days; format: functional; parameters: scale not given: the % may be the effect or the level left; settings: time 4 day
Rattus norvegicus = organism: Rattus norvegicus; experiment: Anti-osteoclast activity rat assessed as inhibition of bone resorption relative to control; format: functional
[5] = Drug distribution in NMRI mouse liver at 4.2 mg/kg administered as C14-lableled compound and assessed as radioactivity and measured upto 2 hrs; format: ADME, organism-based; settings: in vivo
[6] = Drug distribution in NMRI mouse spleen at 4.2 mg/kg administered as C14-lableled compound and assessed as radioactivity and measured upto 2 hrs; format: ADME, organism-based; settings: in vivo
[7] = Drug uptake in Beagle dog pancreas at 0.15 mg/kg, iv administered as C14-lableled compound and assessed as radioactivity after 96 hrs by autoradiography; format: ADME, organism-based, Canis lupus familiaris; settings: in vivo
[8] = Drug uptake in Beagle dog heart at 0.15 mg/kg, iv administered as C14-lableled compound and assessed as radioactivity after 96 hrs by autoradiography; format: ADME, organism-based, Canis lupus familiaris; settings: in vivo
[9] = Drug uptake in Beagle dog lung at 0.15 mg/kg, iv administered as C14-lableled compound and assessed as radioactivity after 96 hrs by autoradiography; format: ADME, organism-based, Canis lupus familiaris; settings: in vivo
[10] = Drug uptake in Beagle dog skin at 0.15 mg/kg, iv administered as C14-lableled compound and assessed as radioactivity after 96 hrs by autoradiography; format: ADME, organism-based, Canis lupus familiaris, Skin of body; settings: in vivo
Trypanosoma cruzi = experiment: Antiparasitic activity against Trypanosoma cruzi amastigotes infected in vero cells assessed as parasite growth inhibition incubated for 48 hrs by light microscopy; format: functional, organism-based
[11] = Drug uptake in Beagle dog knee cartilage at 0.15 mg/kg, iv administered as C14-lableled compound and assessed as radioactivity after 96 hrs by autoradiography; format: ADME, organism-based, Canis lupus familiaris, Cartilage tissue; settings: in vivo
[12] = Drug uptake in Beagle dog adrenal tissue at 0.15 mg/kg, iv administered as C14-lableled compound and assessed as radioactivity after 96 hrs by autoradiography; format: ADME, organism-based, Canis lupus familiaris; settings: in vivo
[13] = Drug uptake in Beagle dog aorta at 0.15 mg/kg, iv administered as C14-lableled compound and assessed as radioactivity after 96 hrs by autoradiography; format: ADME, organism-based, Canis lupus familiaris; settings: in vivo
[14] = Drug uptake in Beagle dog sciatic nerve at 0.15 mg/kg, iv administered as C14-lableled compound and assessed as radioactivity after 96 hrs by autoradiography; format: ADME, organism-based, Canis lupus familiaris; settings: in vivo
[15] = Drug uptake in Beagle dog liver at 0.15 mg/kg, iv administered as C14-lableled compound and assessed as radioactivity after 96 hrs by autoradiography; format: ADME, organism-based, Canis lupus familiaris; settings: in vivo
[16] = Drug uptake in Beagle dog thyroid gland at 0.15 mg/kg, iv administered as C14-lableled compound and assessed as radioactivity after 96 hrs by autoradiography; format: ADME, organism-based, Canis lupus familiaris; settings: in vivo
[17] = Drug uptake in Beagle dog small intestine at 0.15 mg/kg, iv administered as C14-lableled compound and assessed as radioactivity after 96 hrs by autoradiography; format: ADME, organism-based, Canis lupus familiaris; settings: in vivo
[18] = Drug uptake in Beagle dog spleen at 0.15 mg/kg, iv administered as C14-lableled compound and assessed as radioactivity after 96 hrs by autoradiography; format: ADME, organism-based, Canis lupus familiaris; settings: in vivo

**Q.** Which results are given for `O=P(O)(O)C(O)(CCc1cccnc1)P(=O)(O)O`?
**A.** IC50 (Toxoplasma gondii): > 200 µM; IC50 (Plasmodium falciparum): > 200 µM; IC50 (Leishmania donovani): > 200 µM

**Q.** Which results are given for `CCCCCCCCCCC(O)(P(=O)(O)O)P(=O)(O)O`?
**A.** IC50 (Toxoplasma gondii): 0.28 µM; Activity (Entamoeba histolytica [1]): 68%

**Q.** What does the source list for `CCCCCC(O)(P(=O)(O)O)P(=O)(O)O`?
**A.** IC50 (Toxoplasma gondii): 9.1 µM; IC50 [2]: 92 µM; IC50 (Plasmodium falciparum): 130 µM; IC50 (Leishmania donovani): > 200 µM

**Q.** Which results are given for `O=P(O)(O)C(O)(Nc1cccc(-c2ccccc2)c1)P(=O)(O)O`?
**A.** IC50 (Entamoeba histolytica [3]): 6.6 µM; IC50 (Plasmodium falciparum): > 200 µM

**Q.** Which IC50 (Entamoeba histolytica [3]) does the source give for `O=P(O)(O)C(O)(Nc1ccc(-c2ccccc2)cc1)P(=O)(O)O` here?
**A.** 8.76 µM

**Q.** What about the IC50 (Plasmodium falciparum) of the same compound?
**A.** 76.6 µM

**Q.** For `O=P(O)(O)C(O)(Cc1cccc(-c2cccc3oc4ccccc4c23)c1)P(=O)(O)O`, which IC50 [4] is on record?
**A.** 0.59 µM

**Q.** With `CCCCCCCCNC(O)(P(=O)(O)O)P(=O)(O)O` as the compound, how does the IC50 [2] read?
**A.** 1.7 µM

**Q.** Which results are given for `CCCC(O)(P(=O)(O)O)P(=O)(O)O`?
**A.** IC50 (Entamoeba histolytica [3]): 157 µM; Activity (Plasmodium berghei): 80%; IC50 (Plasmodium falciparum): 5.53 µM

**Q.** Which IC50 (Toxoplasma gondii) does the source give for `CCCCCCCCCC(O)(P(=O)(O)O)P(=O)(O)O` here?
**A.** 0.55 µM

**Q.** What about the IC50 (Plasmodium falciparum) of the same compound?
**A.** 0.83 µM

**Q.** With `Cc1cccnc1NC(P(=O)(O)O)P(=O)(O)O` as the compound, how does the IC50 (Plasmodium falciparum) read?
**A.** > 200 µM

**Q.** For `CC(N)CC(O)(P(=O)(O)O)P(=O)(O)O` (stereo not drawn), which IC50 (Plasmodium falciparum) is on record?
**A.** > 200 µM

**Q.** And the IC50 (Leishmania donovani)?
**A.** > 200 µM

**Q.** Which “fold change (FC)” value (Rattus norvegicus) does the source give for `NCCCC(O)(P(=O)(O)O)P(=O)(O)O` [ALENDRONIC ACID] here?
**A.** 400

**Q.** With `O=P(O)(O)C(Cl)(Cl)P(=O)(O)O` [CLODRONIC ACID] as the compound, how does the “fold change (FC)” value (Rattus norvegicus) read?
**A.** 10

**Q.** For `CC(O)(P(=O)(O)O)P(=O)(O)O` [ETIDRONIC ACID], which “fold change (FC)” value (Rattus norvegicus) is on record?
**A.** 1

**Q.** With `CCCCCN(C)CCC(O)(P(=O)(O)O)P(=O)(O)O` [IBANDRONIC ACID] as the compound, how does the “fold change (FC)” value (Rattus norvegicus) read?
**A.** 1000

**Q.** Which Drug uptake [5] does the source give for `NCCC(O)(P(=O)(O)O)P(=O)(O)O` [PAMIDRONIC ACID] here?
**A.** 20%

**Q.** And the Drug uptake [6]?
**A.** 20%

**Q.** What about the “fold change (FC)” value (Rattus norvegicus) of the same compound?
**A.** 100

**Q.** With `O=P(O)(O)C(O)(Cc1cccnc1)P(=O)(O)O` [RISEDRONIC ACID] as the compound, how does the “fold change (FC)” value (Rattus norvegicus) read?
**A.** 2000

**Q.** Which Drug uptake [7] does the source give for `O.O=P(O)(O)C(O)(Cn1ccnc1)P(=O)(O)O` [ZOLEDRONIC ACID] here?
**A.** > 0.1 nmol/g

**Q.** What about the Drug uptake [8] of the same compound?
**A.** > 0.1 nmol/g

**Q.** And the IC50 (Toxoplasma gondii)?
**A.** 6.7 µM

**Q.** What about the Drug uptake [9] of the same compound?
**A.** > 0.1 nmol/g

**Q.** What about the Drug uptake [10] of the same compound?
**A.** > 0.1 nmol/g

**Q.** And the IC50 [2]?
**A.** 8.6 µM

**Q.** And the IC50 (Trypanosoma cruzi)?
**A.** 35 µM

**Q.** What about the Drug uptake [11] of the same compound?
**A.** 0.15 nmol/g

**Q.** What about the “fold change (FC)” value (Rattus norvegicus) of the same compound?
**A.** 6700

**Q.** And the Drug uptake [12]?
**A.** > 0.1 nmol/g

**Q.** And the Drug uptake [13]?
**A.** > 0.1 nmol/g

**Q.** What about the IC50 (Plasmodium falciparum) of the same compound?
**A.** > 200 µM

**Q.** What about the Drug uptake [14] of the same compound?
**A.** > 0.1 nmol/g

**Q.** And the Drug uptake [15]?
**A.** > 0.1 nmol/g

**Q.** And the Drug uptake [16]?
**A.** 0.3 nmol/g

**Q.** What about the Drug uptake [17] of the same compound?
**A.** > 0.1 nmol/g

**Q.** What about the Drug uptake [18] of the same compound?
**A.** > 0.1 nmol/g
